Results reported in ChEMBL document CHEMBL1143857, “(Phenylpiperazinyl)cyclohexylureas: discovery of alpha1a/1d-selective adrenergic receptor antagonists for the treatment of benign prostatic hyperplasia/lower urinary tract symptoms (BPH/LUTS)” (Bioorg Med Chem Lett, 2008).

Key:
[1] = molecular target: D(2) dopamine receptor (Homo sapiens, UniProt P14416); experiment: Displacement of [125I]spiperone from human recombinant dopamine D2 receptor
[2] = molecular target: T1, Alpha-1A adrenergic receptor (Homo sapiens, UniProt P35348); experiment: Displacement of [125I]HEAT from human recombinant adrenergic alpha1A receptor
T1 sequence (P35348 whole entry): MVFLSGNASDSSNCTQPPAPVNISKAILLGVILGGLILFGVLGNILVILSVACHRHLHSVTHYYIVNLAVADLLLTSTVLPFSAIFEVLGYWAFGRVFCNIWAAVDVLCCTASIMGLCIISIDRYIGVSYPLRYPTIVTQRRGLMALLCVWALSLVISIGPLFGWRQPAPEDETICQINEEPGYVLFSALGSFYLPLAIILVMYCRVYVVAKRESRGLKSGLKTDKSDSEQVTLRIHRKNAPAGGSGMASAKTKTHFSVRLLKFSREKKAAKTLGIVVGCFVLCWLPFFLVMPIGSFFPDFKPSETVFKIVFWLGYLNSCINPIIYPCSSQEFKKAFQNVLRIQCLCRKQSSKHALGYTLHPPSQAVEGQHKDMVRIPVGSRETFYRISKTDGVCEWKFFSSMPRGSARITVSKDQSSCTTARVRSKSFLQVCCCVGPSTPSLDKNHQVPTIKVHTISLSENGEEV

[3] = molecular target: T2, Alpha-1B adrenergic receptor (Homo sapiens, UniProt P35368); experiment: Displacement of [125I]HEAT from human recombinant adrenergic Alpha-1B receptor
T2 sequence (P35368 whole entry): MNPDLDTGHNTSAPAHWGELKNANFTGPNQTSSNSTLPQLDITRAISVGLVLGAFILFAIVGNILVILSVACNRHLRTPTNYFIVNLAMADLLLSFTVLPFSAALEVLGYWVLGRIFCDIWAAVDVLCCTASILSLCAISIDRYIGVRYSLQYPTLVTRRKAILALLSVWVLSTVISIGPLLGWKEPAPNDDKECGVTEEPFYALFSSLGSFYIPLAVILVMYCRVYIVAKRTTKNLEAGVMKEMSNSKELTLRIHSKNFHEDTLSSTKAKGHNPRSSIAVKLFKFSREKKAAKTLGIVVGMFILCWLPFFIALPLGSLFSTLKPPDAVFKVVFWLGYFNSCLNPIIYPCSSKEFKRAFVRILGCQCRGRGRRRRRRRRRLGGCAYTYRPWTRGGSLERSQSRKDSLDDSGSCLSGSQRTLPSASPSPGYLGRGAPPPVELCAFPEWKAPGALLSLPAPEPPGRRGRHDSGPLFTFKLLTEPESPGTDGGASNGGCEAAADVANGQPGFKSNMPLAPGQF

[4] = organism: Homo sapiens; experiment: Selectivity for human alpha1A receptor over human Alpha-1D receptor

D(2) dopamine receptor, sequence (P14416 whole entry): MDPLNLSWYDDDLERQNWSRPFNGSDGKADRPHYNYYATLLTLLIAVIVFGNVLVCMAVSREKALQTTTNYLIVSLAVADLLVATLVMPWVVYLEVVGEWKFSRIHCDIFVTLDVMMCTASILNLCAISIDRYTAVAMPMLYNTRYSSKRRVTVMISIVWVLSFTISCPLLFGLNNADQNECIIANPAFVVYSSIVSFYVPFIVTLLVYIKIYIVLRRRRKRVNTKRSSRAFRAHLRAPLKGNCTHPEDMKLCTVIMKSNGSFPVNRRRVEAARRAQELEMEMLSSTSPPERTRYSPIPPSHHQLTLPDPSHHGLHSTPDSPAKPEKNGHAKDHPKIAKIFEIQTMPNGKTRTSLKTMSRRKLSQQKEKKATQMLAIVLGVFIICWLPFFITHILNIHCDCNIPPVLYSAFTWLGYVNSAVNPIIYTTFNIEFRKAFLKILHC

| Structure (SMILES) | Ki [1] [nM] | Ki [2] [nM] | Ki [3] [nM] | Ratio Ki [4] |
| --- | --- | --- | --- | --- |
| CC(C)Oc1ccccc1N1CCN(C2CCC(NC(=O)Nc3ccc(F)cc3F)CC2)CC1 (cis isomer) | 35.5 | 14 | 475 | – |
| COc1ccc(NC(=O)NC2CCC(N3CCN(c4ccccc4OC(C)C)CC3)CC2)c(OC)c1 (stereo in doubt; cis) | 288 | 110 | – | – |
| CC(C)Oc1ccccc1N1CCN(C2CCC(NC(=O)Nc3c(Cl)cc(Cl)cc3Cl)CC2)CC1 (stereo in doubt) | 103 | 51 | 483 | – |
| CC(C)Oc1ccccc1N1CCN(C2CCC(NC(=O)Nc3c(Cl)cc(Cl)cc3Cl)CC2)CC1 (trans isomer) [listing 1 of 2 here] | 6.5 | 6.5 | 112 | – |
| CC(C)Oc1ccccc1N1CCN(C2CCC(NC(=O)Nc3ccc(F)c(F)c3)CC2)CC1 (stereo in doubt) | 54 | 3.6 | 60 | – |
| COc1ccc(Cl)cc1NC(=O)NC1CCC(N2CCN(c3ccccc3OC(C)C)CC2)CC1 (cis isomer) | 99 | 101 | – | – |
| CC(C)Oc1ccccc1N1CCN(C2CCC(NC(=O)Nc3ccccc3Cl)CC2)CC1 (stereo in doubt) [listing 1 of 2 here] | – | – | – | 4 |
| CC(C)Oc1ccccc1N1CCN(C2CCC(NC(=O)Nc3c(F)cccc3F)CC2)CC1 (stereo in doubt; trans) | 2.4 | 5.3 | 36 | – |
| CC(C)Oc1ccccc1N1CCN(C2CCC(NC(=O)Nc3ccccc3Cl)CC2)CC1 (cis isomer) | 878 | 48 | 373 | – |
| CC(C)Oc1ccccc1N1CCN(C2CCC(NC(=O)Nc3cc(F)ccc3F)CC2)CC1 (stereo in doubt) [listing 1 of 2 here] | 0.46 | 1.7 | 36.4 | – |
| CC(C)Oc1ccccc1N1CCN(C2CCC(NC(=O)NCc3cccc(F)c3)CC2)CC1 (stereo in doubt; trans) [listing 1 of 2 here] | – | – | – | 4 |
| COc1ccc(NC(=O)NC2CCC(N3CCN(c4ccccc4OC(C)C)CC3)CC2)c(OC)c1 (stereo in doubt; trans) | 892 | 74 | – | – |
| COc1ccccc1NC(=O)NC1CCC(N2CCN(c3ccccc3OC(C)C)CC2)CC1 (stereo in doubt; cis) | 390 | 155 | 223 | – |
| CC(C)Oc1ccccc1N1CCN(C2CCC(NC(=O)Nc3cc(F)ccc3F)CC2)CC1 (stereo in doubt) [listing 2 of 2 here] | – | – | – | 4 |
| CC(C)Oc1ccccc1N1CCN(C2CCC(NC(=O)Nc3cc(F)ccc3F)CC2)CC1 (cis isomer) | 199 | 26 | 259 | – |
| CC(C)Oc1ccccc1N1CCN(C2CCC(NC(=O)Nc3cccc(Cl)c3)CC2)CC1 (stereo in doubt; cis) | 108 | 22 | – | – |
| CC(C)Oc1ccccc1N1CCN(C2CCC(NC(=O)Nc3c(F)cccc3F)CC2)CC1 (stereo in doubt; cis) | 22 | 52 | 299 | – |
| CC(C)Oc1ccccc1N1CCN(C2CCC(NC(=O)Nc3ccc(F)cc3F)CC2)CC1 (trans isomer) | 0.69 | 3.1 | 76 | – |
| CC(C)Oc1ccccc1N1CCN(C2CCC(NC(=O)Nc3c(Cl)cccc3Cl)CC2)CC1 (stereo in doubt; cis) | 55 | 33 | – | – |
| CC(C)Oc1ccccc1N1CCN(C2CCC(NC(=O)NCc3cccc(F)c3)CC2)CC1 (stereo in doubt; cis) | 183 | 82 | 706 | – |
| COc1ccc(Cl)cc1NC(=O)NC1CCC(N2CCN(c3ccccc3OC(C)C)CC2)CC1 (trans isomer) | 1.2 | 34 | – | – |
| CC(C)Oc1ccccc1N1CCN(C2CCC(NC(=O)Nc3ccc(F)c(F)c3)CC2)CC1 (cis isomer) | 127 | 51 | 963 | – |
| CC(C)Oc1ccccc1N1CCN(C2CCC(NC(=O)NCc3cccc(F)c3)CC2)CC1 (stereo in doubt; trans) [listing 2 of 2 here] | 120 | 11 | 69 | – |
| COc1ccccc1NC(=O)NC1CCC(N2CCN(c3ccccc3OC(C)C)CC2)CC1 (stereo in doubt; trans) | 921 | 38 | 107 | – |
| CC(C)Oc1ccccc1N1CCN(C2CCC(NC(=O)Nc3c(Cl)cccc3Cl)CC2)CC1 (stereo in doubt; trans) | 4.7 | 6.2 | – | – |
| CC(C)Oc1ccccc1N1CCN(C2CCC(NC(=O)Nc3c(Cl)cc(Cl)cc3Cl)CC2)CC1 (trans isomer) [listing 2 of 2 here] | – | – | – | 4 |
| CC(C)Oc1ccccc1N1CCN(C2CCC(NC(=O)Nc3ccccc3Cl)CC2)CC1 (stereo in doubt) [listing 2 of 2 here] | 33 | 11 | 39 | – |
| CC(C)Oc1ccccc1N1CCN(C2CCC(NC(=O)Nc3cccc(Cl)c3)CC2)CC1 (stereo in doubt; trans) | 84 | 5.1 | – | – |
